Earlier results, collected in patent US11851709B2, “HER2 as a predictor of response to dual HER2 blockade in the absence of cytotoxic therapy” (FUNDACIÓ PRIVADA INSTITUT D'INVESTIGACIÓ ONCOLÓGICA DE VALL …, priority 2016, dated 2023).

Assays:
HER2+ breast cancer = conditions: at 4.5-years; added to adjuvant trastuzumab and chemotherapy; statistically non-significant
[1] = test system: node-positive breast cancer; conditions: interaction between HER2 positivity and addition of paclitaxel; P=0.01

Structure (SMILES) | absolute benefit in DFS (HER2+ breast cancer) [%] | hazard ratio for recurrence [1]
CS(=O)(=O)CCNCc1ccc(-c2ccc3ncnc(Nc4ccc(OCc5cccc(F)c5)c(Cl)c4)c3c2)o1 [lapatinib] | ~2 | –
CC(=O)O[C@H]1C(=O)[C@@]2(C)[C@H]([C@H](OC(=O)c3ccccc3)[C@]3(O)C[C@H](OC(=O)[C@H](O)[C@@H](NC(=O)c4ccccc4)c4ccccc4)C(C)=C1C3(C)C)[C@]1(OC(C)=O)CO[C@@H]1C[C@@H]2O [paclitaxel] | – | 0.59
